Target: Leucine-rich repeat serine/threonine-protein kinase 2 (Homo sapiens, UniProt Q5S007)
Test: Biochemical Assay
Experimental: The protocol for basic TR-FRET LanthaScreen Tb Kinase Activity Assay inhibitor studies were as follows. LanthaScreen Kinase Activity Assays (ThermoFisher/USA) to evaluate inhibitors were performed by addition of 100 nL of test compound in corresponding DMSO dilutions/5 μL of kinase/fluorescein-ERM(LRRKtide) peptide mixture, 5 μL of ATP into 384 well small volume plates. After incubation for 120 minutes at room temperature, the detection reagents containing Tb-anti-pLRRKtide antibody were added to monitor phosphrylation level of peptide. Then, after 60 min minutes incubation at room temperature plates were read in Envision. Data analysis of emission ratios was according to LanthaScreen Tb Kinase Activity Assay protocol.Kinase and assay components were adjusted to final concentrations according to the kit protocol. For LRRK2: 2 nM wt human LRRK2, catalytic site, catalytic site (ThermoFisher/USA), 400 nM peptide, 38 μM ATP in 1× Kinase Buffer A.Basic protocol for TR-FRET LanthaScreen Tb Kinase Activity Assay inhibitor studies involved two steps:Enzymatic step: Addition of 100 nL of test compound in corresponding DMSO dilutions, 5 μL of kinase/substrate mixture, 5 μL of ATP into 384 well small volume plates. Incubation for 120 minutes at room temperature.Detection step: Addition of 10 μL EDTA & antibody, read plate after 60 minutes. […]

Sequence of Leucine-rich repeat serine/threonine-protein kinase 2 (Q5S007 whole entry): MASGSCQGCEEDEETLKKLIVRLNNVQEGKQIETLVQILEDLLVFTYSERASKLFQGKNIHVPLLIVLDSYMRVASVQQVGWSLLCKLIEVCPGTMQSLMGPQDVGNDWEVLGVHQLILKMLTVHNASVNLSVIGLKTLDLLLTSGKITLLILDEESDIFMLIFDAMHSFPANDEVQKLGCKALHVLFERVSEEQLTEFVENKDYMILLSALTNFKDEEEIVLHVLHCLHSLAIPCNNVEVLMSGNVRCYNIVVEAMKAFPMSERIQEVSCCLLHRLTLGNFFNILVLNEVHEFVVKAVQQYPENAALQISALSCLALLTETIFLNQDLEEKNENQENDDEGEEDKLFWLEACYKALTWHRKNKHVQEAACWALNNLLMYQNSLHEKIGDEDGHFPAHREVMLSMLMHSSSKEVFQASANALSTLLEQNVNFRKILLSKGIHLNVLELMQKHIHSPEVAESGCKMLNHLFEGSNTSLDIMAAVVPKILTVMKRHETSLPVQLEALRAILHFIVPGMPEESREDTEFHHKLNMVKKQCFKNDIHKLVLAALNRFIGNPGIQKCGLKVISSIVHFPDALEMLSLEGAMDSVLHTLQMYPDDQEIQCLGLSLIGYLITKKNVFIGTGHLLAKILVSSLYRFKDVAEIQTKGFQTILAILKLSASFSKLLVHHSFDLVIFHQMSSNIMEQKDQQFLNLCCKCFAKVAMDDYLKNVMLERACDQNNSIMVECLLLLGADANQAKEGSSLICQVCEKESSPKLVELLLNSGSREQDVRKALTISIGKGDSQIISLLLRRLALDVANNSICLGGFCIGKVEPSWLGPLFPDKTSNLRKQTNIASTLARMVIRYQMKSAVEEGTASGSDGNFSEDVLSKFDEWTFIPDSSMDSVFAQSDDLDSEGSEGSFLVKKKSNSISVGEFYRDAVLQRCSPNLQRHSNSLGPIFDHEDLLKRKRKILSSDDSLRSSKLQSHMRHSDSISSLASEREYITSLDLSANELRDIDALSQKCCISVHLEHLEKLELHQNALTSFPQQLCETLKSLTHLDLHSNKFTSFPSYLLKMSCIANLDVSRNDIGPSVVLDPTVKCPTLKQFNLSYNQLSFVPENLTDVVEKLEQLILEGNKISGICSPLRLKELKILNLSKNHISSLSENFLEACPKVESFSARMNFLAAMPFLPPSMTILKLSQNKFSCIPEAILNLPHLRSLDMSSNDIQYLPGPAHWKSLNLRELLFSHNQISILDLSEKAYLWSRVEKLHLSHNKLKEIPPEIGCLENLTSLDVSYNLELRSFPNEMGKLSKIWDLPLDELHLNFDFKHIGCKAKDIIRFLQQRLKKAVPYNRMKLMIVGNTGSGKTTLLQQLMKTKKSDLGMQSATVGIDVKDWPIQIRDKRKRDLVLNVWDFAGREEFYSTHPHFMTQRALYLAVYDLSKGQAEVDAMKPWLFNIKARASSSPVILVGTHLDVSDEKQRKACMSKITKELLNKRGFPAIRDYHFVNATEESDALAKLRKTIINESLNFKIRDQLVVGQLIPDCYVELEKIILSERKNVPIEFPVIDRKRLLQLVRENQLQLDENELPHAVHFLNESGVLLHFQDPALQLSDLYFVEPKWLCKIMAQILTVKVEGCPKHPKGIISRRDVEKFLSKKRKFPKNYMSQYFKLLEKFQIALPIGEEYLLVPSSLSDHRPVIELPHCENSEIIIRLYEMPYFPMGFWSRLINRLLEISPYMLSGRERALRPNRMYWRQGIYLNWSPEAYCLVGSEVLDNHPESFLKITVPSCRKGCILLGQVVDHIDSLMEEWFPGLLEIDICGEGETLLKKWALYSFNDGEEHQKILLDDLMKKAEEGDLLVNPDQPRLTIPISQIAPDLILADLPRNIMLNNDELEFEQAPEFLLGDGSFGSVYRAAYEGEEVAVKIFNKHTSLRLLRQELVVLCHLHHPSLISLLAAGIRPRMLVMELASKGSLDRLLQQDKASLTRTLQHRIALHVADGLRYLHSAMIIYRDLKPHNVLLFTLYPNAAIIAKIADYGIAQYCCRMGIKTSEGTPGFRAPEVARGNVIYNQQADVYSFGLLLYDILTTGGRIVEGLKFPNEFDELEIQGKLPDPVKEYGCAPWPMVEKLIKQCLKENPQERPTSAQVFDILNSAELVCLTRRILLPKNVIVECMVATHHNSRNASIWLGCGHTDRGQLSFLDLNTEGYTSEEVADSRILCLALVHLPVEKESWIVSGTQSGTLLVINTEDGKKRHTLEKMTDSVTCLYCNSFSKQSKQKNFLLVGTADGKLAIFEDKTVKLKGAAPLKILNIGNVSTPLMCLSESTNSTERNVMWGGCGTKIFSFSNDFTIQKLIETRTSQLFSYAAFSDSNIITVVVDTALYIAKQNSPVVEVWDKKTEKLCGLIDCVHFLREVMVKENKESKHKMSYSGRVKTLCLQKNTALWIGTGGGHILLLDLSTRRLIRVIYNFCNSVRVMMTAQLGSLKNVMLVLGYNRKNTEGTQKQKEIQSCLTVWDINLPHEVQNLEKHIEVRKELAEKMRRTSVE

`CNc1nc(Nc2ccc(F)c3[nH]ncc23)ncc1C(F)(F)F` [US20240174647, Example 27] was tested, and the IC50 was under 50 nM.
